Patent US12612417B2, “Deuterated analogues of selenophenochromenes, synthesis thereof, and methods of using same agents” (Latvian Institute of Organic Synthesis, priority 2019, dated 2026)
Counter-ions that a name gives are not always drawn.

How the values were obtained:
[1] = Metabolic stability in vitro, lysate of human hepatoma cells HepG2; format: in vitro ADME; details: 37° C.
Procedure: Assay: the human hepatoma cells HepG2 (ATCC HB-8065) were grown in Eagle's Minimum Essential Medium supplemented with 10% fetal calf serum. The cells were harvested at 80% confluence. The hepatocytes were scraped, two time washed in Hank's Balanced Salt Solution (HBSS) buffer pH-7.4 and suspended in homogenization buffer composed of 10 mM Tris-HCl, 10 mM KCl, 0.15 mM MgCl2 pH 6.7. The cells were homogenized on ice by homogenizer LabGEN7 (Cole Palmer) at 5000 rpm 15 sec. Homogenized cells in HBSS with compound (protein concentration is 95 μg/ml) incubate 37° C. After 10, 30, 60, 120, 180, and 240 min collect 1 ml sample and add 0.1 ml 40% TCA, then centrifugation at 1200 g for 10 min. Supernatant collected and analyzed.
Results: The stability of deuterated selenopheno[h]chromenes I-1-I-3 compared with non-deuterated analogue methyl 7-bromo-8-((4-methylpiperazin-1-yl)methyl)-2-oxo-2H-selenopheno[3,2-h]chromene-3-carboxylate dihydrochloride (I-0) was tested in vitro using lysate of human hepatoma cells HepG2. The results are presented in FIG. 1 (x-axis—minutes of incubation, y-axis—percent of remained ester).

[2] = test system: A549 (human lung carcinoma); assay: In vitro cytotoxicity (MTT) on A549; format: cell-based; details: 48 h
Procedure: (§1) Anticancer activity of deuterated selenopheno[h]chromenes was tested in vitro using cytotoxicity assay. Thus, monolayer tumor cell lines MDA-MB-435s (human melanoma), MCF-7 (human breast adenocarcinoma, estrogen-positive), MES-SA (human uterus sarcoma), HT-1080 (human fibrosarcoma), A549 (human lung carcinoma), GM08402 (human fibroblast, apparently healthy), 3T3 (mouse embryo fibroblasts), H9C2 (rat cardiomyocytes) were cultured in standard medium DMEM (Dulbecco's modified Eagle's medium) (“Sigma”) supplemented with 10% heat-inactivated fetal bovine serum (“Sigma”). The cell viability was assessed by addition of 3-(4,5-dimethylthiazol-2-yl)-2,5-diphenyltetrazolinium bromide (MTT). Briefly, cells were seeded (2−6×10^4 cells/ml) in 96-well plates and allowed to attach for 24 h.
(§2) Tested compound solutions were prepared and serially diluted to obtain appropriate concentrations. Cells were treated with different concentrations (0.032-100 μM) and incubated for 48 h at 37° C., 5% CO2 Then the culture medium was removed and medium containing 0.2 mg/ml MTT was added. After 3 h (37° C., 5% CO2), the MTT-containing medium was removed, and 200 μl of dimethyl sulfoxide (DMSO) was immediately added to each sample. The absorbance was assessed at 540 nm on a Tecan multiplate reader Infinite 1000 (Austria). The half-maximal inhibitory concentration (IC50) of each compound was calculated using Graph Pad Prism® 3.0.

[3] = test system: 3T3 (mouse embryo fibroblasts); assay: In vitro cytotoxicity (MTT) on 3T3; format: cell-based; details: 3T3, MTT, 48 h
Procedure: as §1, §2

[4] = test system: GM08402 (human fibroblast, apparently healthy); assay: In vitro cytotoxicity (MTT) on GM08402; format: cell-based; details: 48 h
Procedure: as §1, §2

[5] = test system: MES-SA (human uterus sarcoma); assay: In vitro cytotoxicity (MTT) on MES-SA; format: cell-based; details: 48 h
Procedure: as §1, §2

MDA-MB-231 = assay: In vitro cytotoxicity (MTT) on MDA-MB-231; format: cell-based, human; details: MDA-MB-231, MTT, 48 h
[6] = test system: HT-1080 (human fibrosarcoma); assay: In vitro cytotoxicity (MTT) on HT-1080; format: cell-based; details: HT-1080, MTT, 48 h
Procedure: as §1, §2

[7] = test system: H9C2 (rat cardiomyocytes); assay: In vitro cytotoxicity (MTT) on H9C2; format: cell-based; details: 48 h
Procedure: as §1, §2

[8] = test system: MCF-7 (human breast adenocarcinoma, estrogen-positive); assay: In vitro cytotoxicity (MTT) on MCF-7; format: cell-based; details: MCF-7, MTT, 48 h
Procedure: as §1, §2

[9] = In vitro cytotoxicity (MTT) on 3T3; format: cell-based, mouse; details: mouse, 3T3 embryo fibroblasts, 3T3, MTT
Procedure: as §1, §2

[10] = In vitro cytotoxicity (MTT) on GM08402; format: cell-based, human; details: human, GM08402 fibroblasts
Procedure: as §1, §2

[11] = In vitro cytotoxicity (MTT) on H9C2; format: cell-based, rat; details: rat, H9C2 cardiomyocytes
Procedure: as §1, §2

| Compound | percent of remained ester ([1]; after 240 minutes of incubation) [%] | stability to hydrolysis (in words) ([1]; incubation up to 240 min, FIG. 1) | IC50 [2] [µM] | IC50 [3] [µM] | IC50 [4] [µM] | IC50 [5] [µM] | IC50 (MDA-MB-231) [µM] | IC50 [6] [µM] | IC50 [7] [µM] | IC50 [8] [µM] | IC50 ([2]; Homo sapiens) [µM] | IC50 at 48 h [9] [µM] | IC50 at 48 h [10] [µM] | IC50 ([5]; Homo sapiens) [µM] | IC50 (MDA-MB-231; Homo sapiens) [µM] | IC50 ([6]; Homo sapiens) [µM] | IC50 at 48 h [11] [µM] | IC50 ([8]; Homo sapiens, MCF7) [µM] |
| --- | --- | --- | --- | --- | --- | --- | --- | --- | --- | --- | --- | --- | --- | --- | --- | --- | --- | --- |
| Butyl-d9 7-bromo-8-((4-methylpiperazin-1-yl)methyl)-2-oxo-2H-selenopheno[3,2-h]chromene-3-carboxylate dihydrochloride [Compound I-3] | 24 | highest stability to hydrolysis | 40 ± 13 | 34 ± 7 | 62 ± 3 | 29 ± 3 | 35 ± 8 | 31 ± 3 | 30 ± 4 | 70 ± 3 |  |  |  |  |  |  |  |  |
| [2H]C([2H])([2H])OC(=O)c1cc2ccc3c(Br)c(CN4CCN(C)CC4)[se]c3c2oc1=O [Compound I-1, Methyl-d3 7-bromo-8-((4-methylpiperazin-1-yl)methyl)-2-oxo-2H-selenopheno[3,2-h]chromene-3-carboxylate dihydrochloride] |  |  |  |  |  |  |  |  |  |  | 105 ± 7 | 66 ± 11 | 89 ± 16 | 40 ± 7 | 84 ± 13 | 70 ± 6 | 82 ± 14 | 82 ± 5 |
| COC(=O)c1cc2ccc3c(Br)c(CN4CCN(C)CC4)[se]c3c2oc1=O [Compound I-0, methyl 7-bromo-8-((4-methylpiperazin-1-yl)methyl)-2-oxo-2H-selenopheno[3,2-h]chromene-3-carboxylate dihydrochloride, reference compound] |  |  |  |  |  |  |  |  |  |  | > 100 | 100 ± 5 | 77 ± 16 | 56 ± 1 | 95 ± 4 | 58 ± 5 | 92 ± 12 | 54 ± 6 |
| Cl.Cl.[2H]C([2H])([2H])C([2H])([2H])OC(=O)c1cc2ccc3c(Br)c(CN4CCN(C)CC4)[se]c3c2oc1=O [Compound I-2, Ethyl-d5 7-bromo-8-((4-methylpiperazin-1-yl)methyl)-2-oxo-2H-selenopheno[3,2-h]chromene-3-carboxylate dihydrochloride] |  |  |  |  |  |  |  |  |  |  | > 100 | 64 ± 9 | 94 ± 8 | 56 ± 15 | 90 ± 15 | 59 ± 6 | 73 ± 4 | 46 ± 4 |
